The subject of one data set is urease. In words: Urease inhibiting test (phenol red, formation of ammonium from urea). It counts as biochemical. Conditions: molar concentration of 30 nM. As to the method: Urease inhibition is evaluated by the assay based on RUÍZ-HERRERA, J; GONZALEZ, L. A (1969) and has the objective to verify in the visible spectra, by using phenol red as indicator, the formation of ammonium from urea according to the following reaction: […]

The test system of data set [1] is Salmonella typhimurium T-100 strain. In words: Ames Test without metabolic activation (−S9), mutagenic activity. Type of data set: cell-based. Conditions: for revertant colonies per plate (mean ± standard deviation): −S9, T-100 strain; for mutagenic rate (RM): −S9, positive response ≧2. The procedure: The mutagenic activity of the compounds were evaluated by The Ames Test without metabolic activation (−S9), with Salmonella typhimurium T-100 strain. The test is based in the fact that indicating S. typhimurium strains are sensitive to substances capable of inducing different kinds of mutation. In the presence of mutagenic agents, these strains revert the character of histidine auxotrophic synthesis, and start forming colonies in a medium were this aminoacid is absent. The mutagenic activity of a compound as its concentration function is established by counting the number of colonies per plate.
The final data obtained were analyzed by using Salanal software (Salmonella Assay Analysis) Version 1.0 from Research Triangle Institute, RTP, North Carolina, USA. This software allows to evaluate the dose-answer response by performing an analysis of variance (ANOVA f-test) between the mean revertants number in the different tested concentrations (doses) and the negative control, followed by a linear regression. […] The slope of the linear part of response-dosage curve is also furnished by the program and it corresponds to the number of revertants induced per mg of the sample analyzed.
MR is calculated by the following equation: […]

Each structure is given as a SMILES string.

As for `Cc1ncc([N+](=O)[O-])n1CCOC(=O)CCC(=O)NC(=S)NC(=O)CCC(=O)OCCn1c([N+](=O)[O-])cnc1C` [Example 5, Bis[2-(2-methyl-5-nitro-1H-imidazol-1-yl)ethyl]4,4′[(thioxomethylene)diimine]bis(4-oxobutanoate)], the figures for the Urease inhibiting percentage in the data set with urease (1 minute), with urease (2 minutes) and in the data set with urease (3 minutes) were 74%, 67% and 65%, respectively. The “revertant colonies per plate (mean ± standard deviation)” value in data set [1] (2.9 (mM)/plate) came out at 162 ± 29 colonies per plate; in data set [1] (14.6 (mM)/plate), 316 ± 19 colonies per plate; in data set [1] (29.2 (mM)/plate), 606 ± 94 colonies per plate; in data set [1] (58.4 (mM)/plate), 1095 ± 100 colonies per plate; in data set [1] (116.9 (mM)/plate) it was 1582 ± 79 colonies per plate. Also, the “mutagenic rate (RM)” value is reported as “RM = 1.3” in data set [1] (2.9 (mM)/plate); “RM = 2.5” in data set [1] (14.6 (mM)/plate); “RM = 4.8” in data set [1] (29.2 (mM)/plate); “RM = 8.7” in data set [1] (58.4 (mM)/plate); “RM = 12.5” in data set [1] (116.9 (mM)/plate). The “mutagenic activity compared with metronidazole parent drug or its monosuccinate ester (example 1)” value in data set [1] (FIG. 1, from table 1) is listed as “very inferior”.
As to `Cc1ncc([N+](=O)[O-])n1CCO` [Metronidazole, 2-(2-methyl-5-nitro-1H-imidazol-1-yl)ethanol], the figures for the Urease inhibiting percentage in the data set with urease (1 minute), in the data set on urease (2 minutes) and in the data set on urease (3 minutes) were 6%, 7% and 7%, respectively.
With `NC(N)=S` [Tiourea, thiourea], the Urease inhibiting percentage was 23% in the data set on urease (1 minute), 16% in the data set with urease (2 minutes) and 17% in the data set on urease (3 minutes).
